Experimental data from patent US5550143A, “Heterocyclic compounds” (Adir et Compagnie, priority 1992, dated 1996).
Read-outs that look alike come from different tables or passages of the source.

Tests used:
TNF [1] = test: Inhibition of the production of TNF in mice treated with LPS (amount of TNF in the serum); type: in vivo; details: Mus musculus, 1 h; for inhibition in vivo at 50 mg/kg: oral, 30 min before LPS 2.5 μg i.p., compared with control group which received only LPS, read-out: % inhibition of the production of TNF after oral admin.
Description: The test is carried out on mice. Thirty minutes after the intraperitoneal or oral administration of the molecule to be tested, the mice are treated intraperitoneally with 2.5 μg of LPS from Escherichia coli. The amount of TNF in the serum is measured after 1 hour by a biological method.

corticosteronemia = test: Measurement of corticosteronemia after administration of IL-1; type: in vivo, mice; details: for Reduction in hypercorticosteronemia compared with control / Hypercorticosteronemia after admin. IL-1: 30 min before 1 μg IL-1 i.p.; for Hypercorticosteronemia after admin. IL-1: measured 2 hours later
Description: Thirty minutes after the intraperitoneal administration of the molecule to be tested, the mice are treated with 1 μg of IL-1 injected intraperitoneally. Corticosteronemia is determined 2 hours later by a suitable technique. Under the same conditions, the compound and then a saline solution are administered intraperitoneally to a control group.

[2] = Hypotensive effect in rats; type: in vivo; details: 20 mg/kg intraperitoneally
Procine pancreatic PLA2 = biological target: T1, Procine pancreatic PLA2 (Sus scrofa, UniProt P00592); test: Inhibition of phospholipase PLA2 activity (E. coli membranes labelled with tritiated oleic acid); type: biochemical, pigs; details: read-out: % Inhibition at 1 mM
T1 construct: from tissue; host or cells: porcine pancreas
Description: PLA2 hydrolyses cell membrane phospholipids by freeing arachidonic acid (AA). Inhibition of that enzyme brings about a reduction in the amount of non-esterified free AA from which metabolites, such as leucotrienes and pro-inflammatory prostaglandins, are produced. The PLA2 activity is measured by using as substrate E. coli membranes labelled with tritiated oleic acid. Procine pancreatic PLA2 is incubated with the preparation for 30 minutes at 37° C. After centrifugation, the radioactivity of the supernatant is counted. The inhibitory activity of the compound (1 mM) is expressed in relation to the control.

[3] = test system: spontaneous motor activity; test: Locomotive activity in mice (spontaneous motor activity); type: in vivo; details: for Number of movements (as a % compared with a control group): 30 min before test, 15 min, ns p > 0.05, ** p < 0.01
Description: This test consists in determining the spontaneous motor activity of mice placed in an enclosure that constitutes a new environment and is equipped with a system of infra-red rays, the interruption of which when the animal passes through serves as a measurement criterion ("Activity monitor" Digiscan-Omnitech Electronics, Sufraco France).
The molecules are administered intraperitoneally 30 minutes before the test at doses of 1, 2, 2.5, 4, 5 and 10 mg/kg. The locomotive activity (number of movements) is measured for 15 minutes.

LPS shock = test: Protective effect in respect of LPS shock (% survival of mice after administration of LPS); type: in vivo; details: 30 min before LPS 1 μg
Description: The test is carried out on mice. The compound to be tested is administered intraperitoneally or orally. In the first protocol (i.p.), the compound is administered 30 minutes before the injection of 1 μg of LPS into mice. The mortality is determined 72 hours later.

TNF [4] = test: Peripheral effect: amount of TNF in serum and brain of rats after intracerebroventricular LPS; type: in vivo; details: Example 1 i.p. 8 mg/kg, FIG. 1
From the text: In comparison with chlorpromazine, the compounds of the invention have only a peripheral effect.

[5] = ip, read-out: % inhibition of the production of TNF after i.p. admin.
[6] = 1 mM, 30 minutes at 37° C., relative to control

T1 sequence (P00592 23-146): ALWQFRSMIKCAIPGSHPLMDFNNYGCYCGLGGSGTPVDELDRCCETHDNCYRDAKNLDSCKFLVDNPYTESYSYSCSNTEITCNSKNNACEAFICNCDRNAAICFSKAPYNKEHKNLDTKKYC

Structure (SMILES) | inhibition in vivo at 50 mg/kg (TNF [1]) | inhibition in vivo at 5 mg/kg (TNF [1]; [5]) | Reduction in hypercorticosteronemia compared with control (corticosteronemia; 5 mg/kg i.p.) | Hypercorticosteronemia after admin. IL-1 (corticosteronemia; 5 mg/kg i.p.) | hypotension [2] | further results
CCCC[N+](C)(C)CCCN1c2ccccc2[S+]([O-])c2ccc(Cl)cc21.[Br-] (stereo not drawn) [Example 8, N-[3-(2-chloro-5-oxo-phenothiazin-10-yl)propyl] butyldimethylammonium bromide] | 73% | 71% | 19.3% | 356 ng/ml serum | No hypotension is observed | 
O=C(O)CCCN1c2ccccc2Sc2ccc(Cl)cc21 [Example 15, 4-(2-chlorophenothiazin-10-yl)butanoic acid] | 55% |  |  |  |  | 
CCCC[N+](C)(C)CCCN1c2ccccc2Sc2ccc(Cl)cc21.[Br-] [Example 7, N-[3-(2-chlorophenothiazin-10-yl)propyl] butyldimethylammonium bromide] | 72% | 95% | 11.8% | 389 ng/ml serum | No hypotension is observed | inhibition at 1000 µM (Procine pancreatic PLA2; [6]): 97%; Number of movements (as a % compared with a control group) ([3]; IP 5 mg/kg): -43%; Number of movements (as a % compared with a control group) ([3]; IP 10 mg/kg): -63%; Number of movements (as a % compared with a control group) ([3]; IP 2,5 mg/kg): -27%; % survival 72 h after i.p. administration (LPS shock; 5 mg/kg): 40%
C[N+](C)(C)CCCN1c2ccccc2[S+]([O-])c2ccc(Cl)cc21.[Br-] (stereo not drawn) [Example 2, N-[3-(2-chloro-5-oxo-phenothiazin-10-yl)propyl]trimethylammonium bromide] | 60% | 50% | 5.4% | 417 ng/ml serum | No hypotension is observed | 
CC(C)=CCC/C(C)=C/CN1c2ccccc2Sc2ccc(Cl)cc21 [Example 26, 2-chloro-10-[(2E)-1-(3,7-dimethylocta-2,6-dienyl)]phenothiazine] | 55% |  |  |  |  | 
CC(C)(C)C1CCC2(CC1)CCN(CCCN1c3ccccc3Sc3ccc(Cl)cc31)C2 (stereo not drawn) [Example 27, 2-[3-(2-chlorophenothiazin-10-yl)propyl]-8-tert-butyl-2-azoniaspiro[4.5]decane chloride] | 26% |  |  |  |  | 
CN(C)CCCN1c2ccccc2Sc2ccc(Cl)cc21 [Chlorpromazine, reference compound] |  |  |  |  | severe hypotension from the 15th minute onwards | inhibition at 1000 µM (Procine pancreatic PLA2): 76%; inhibition in vivo at 4 mg/kg (TNF [1]; [5]): 100%; Reduction in hypercorticosteronemia compared with control (corticosteronemia; 4 mg/kg i.p.): ~86%; Reduction in hypercorticosteronemia compared with control (corticosteronemia; 4 mg/kg i.p., listed as Chloropromazine): 85.7%; Hypercorticosteronemia after admin. IL-1 (corticosteronemia; 4 mg/kg i.p.): 63 ng/ml serum; passage through the blood/brain barrier (corticosteronemia; demonstrated by determination of corticosteronemia after IL-1): crosses the blood/brain barrier; Number of movements (as a % compared with a control group) ([3]; IP 1 mg/kg): -20%; Number of movements (as a % compared with a control group) ([3]; IP 2 mg/kg): -58%; Number of movements (as a % compared with a control group) ([3]; IP 4 mg/kg): -64%; sedative action (in words) ([3]; i.p., chlorpromazine at 2 mg/kg and above): very sedative at 2 mg/kg and above; % survival 72 h after i.p. administration (LPS shock; 1 mg/kg): 36%; % survival 72 h after i.p. administration (LPS shock; 4 mg/kg): 77%; amount of TNF in the brain (rats, intracerebroventricular LPS) (TNF [4]; brain): the amount in the brain, as is observed in rats treated with chlorpromazine; amount of TNF in the serum (rats, intracerebroventricular LPS) (TNF [4]; 8 mg/kg): reduces the amount of TNF in the serum, as does chlorpromazine
CCN(CC)CCCC(C)Nc1c2ccc(Cl)cc2nc2ccc(OC)cc12 (stereo not drawn) [Mepacrine, reference compound] |  |  |  |  |  | inhibition at 1000 µM (Procine pancreatic PLA2): 67%
C[N+](C)(C)CCCN1c2ccccc2S(=O)(=O)c2ccc(Cl)cc21 [Example 3, N-[3-(2-chloro-5-dioxo-phenothiazin-10-yl)propyl]trimethylammonium bromide] |  | 69% |  |  |  | 
C[N+](C)(C)CCCN1c2ccccc2Sc2ccc(Cl)cc21.[Br-] [Example 1, N-[3-(2-chlorophenothiazin-10-yl)propyl]trimethylammonium bromide] | 68% | 75% | 11.8% | 389 ng/ml serum | No hypotension is observed | inhibition at 1000 µM (Procine pancreatic PLA2; [6]): 72%; Number of movements (as a % compared with a control group) ([3]; IP 5 mg/kg): -20%; Number of movements (as a % compared with a control group) ([3]; IP 10 mg/kg): -9%; % survival 72 h after i.p. administration (LPS shock; 5 mg/kg): 80%; amount of TNF in the serum (rats, intracerebroventricular LPS) (TNF [4]): reduces the amount of TNF in the serum
C[N+](C)(CCCN1c2ccccc2Sc2ccc(Cl)cc21)Cc1ccccc1.[Br-] [Example 10, N-[3-(2-chlorophenothiazin-10-yl)propyl] benzyldimethylammonium bromide] |  | 27% | 0.2% | 440 ng/ml serum |  | inhibition at 1000 µM (Procine pancreatic PLA2; [6]): 98%; % survival 72 h after i.p. administration (LPS shock; 5 mg/kg): 60%
CC(C)[N+](C)(C)CCCN1c2ccccc2Sc2ccc(Cl)cc21 [Example 6, N-[3-(2-chlorophenothiazin-10-yl)propyl] dimethylisopropylammonium bromide] | 38% |  |  |  |  | 
CCCC[N+](C)(C)CCCN1c2ccccc2S(=O)(=O)c2ccc(Cl)cc21 [Example 9, N-[3-(2-chloro-5-dioxo-phenothiazin-10-yl)propyl] butyldimethylammonium bromide] |  | 75% |  |  |  | 
